Experiment: Binding of stilbene derivatives to chitosan, dissociation constants by indirect difference spectroscopy
Conditions: qualitative statement on binding affinity
Description: Binding studies of stilbene derivatives to chitosan or MHEC

| binding to chitosan (in words) | SMILES |
| --- | --- |
| no significant improvement in binding | O=S(=O)(O)c1cc(Nc2nc(NCCO)nc(Nc3ccccc3)n2)ccc1C=Cc1ccc(Nc2nc(NCCO)nc(Nc3ccccc3)n2)cc1S(=O)(=O)O [OB85] |
| no significant improvement in binding | O=S(=O)(O)c1cc(Nc2nc(Nc3ccccc3)nc(N(CCO)CCO)n2)ccc1/C=C/c1ccc(Nc2nc(Nc3ccccc3)nc(N(CCO)CCO)n2)cc1S(=O)(=O)O [calcofluor white] |

| SMILES | binding to chitosan (in words) |
| --- | --- |
| Nc1ccc(C=Cc2ccc(N)cc2S(=O)(=O)O)c(S(=O)(=O)O)c1 [4,4′-diaminostilbene-2,2′-disulfonic acid] | neither the core structure itself nor its bis(dichlorotriazine) derivative (R^4a═R^6a═R^4b═R^6b═Cl) binds to chitosan |
